# From article PMC7738869, “A novel STAT3 inhibitor W2014-S regresses human non-small cell lung cancer xenografts and sensitizes EGFR-TKI acquired resistance” (Theranostics, 2021)
# Several values for one entry are separate records, joined by “and”; a condition that tells them apart may be missing. Equal values may be shown once. Read-outs that look alike come from different tables or passages of the source.
# Test: Pharmacokinetic study
# Type: in vivo, SD rats
# Details: for AUC(0-inf): read-out: AUCINF_obs; for MRT inf: read-out: MRTINF_obs
# Experimental: W2014-S was given to SD rats (male, 230-260g, n = 6) by gavage and intravenous administration. The rats were fasted for 12 h before administration and remained fasting for 2 h. For oral gavage, W2014-S was dissolved in DMSO/0.5% HPMC (5/95, v/v/), and W2014-S was dissolved in DMSO/EtOH/PEG300/0.9% NaCl (5/5/40/50, v/v/v/v) for intravenous administration. The pharmacokinetic (PK) profiles were next evaluated in SD rats.
# [1] = male, SD, rat, plasma, iv, 3 mg/kg, rat, i.v. 3 mg/kg, individual animals 4-6
compound,measurement,setting,value
C[C@H](Oc1ccc(-c2nc3nc(C4=CCN(C(=O)OC(C)(C)C)CC4)ccc3[nH]2)cc1)c1ccccc1 [W2014-S],"Concentration in rat plasma, individual animals 4-6","i.v. 3 mg/kg, 0.05 h, 3 mg/kg",335 ng/mL and 339 ng/mL
same,"Concentration in rat plasma, individual animals 4-6","i.v. 3 mg/kg, 0.25 h, 3 mg/kg",145 ng/mL and 134 ng/mL
same,"Concentration in rat plasma, individual animals 4-6","i.v. 3 mg/kg, 0.75 h, 3 mg/kg",66.9 ng/mL and 80.1 ng/mL
same,"Concentration in rat plasma, individual animals 4-6","i.v. 3 mg/kg, 2.00 h, 3 mg/kg",17.6 ng/mL and 22.6 ng/mL
same,"Concentration in rat plasma, individual animals 4-6","i.v. 3 mg/kg, 4.00 h, 3 mg/kg",3.60 ng/mL and 5.00 ng/mL
same,"Concentration in rat plasma, individual animals 4-6","i.v. 3 mg/kg, 8.00 h, 3 mg/kg",1.10 ng/mL and 2.60 ng/mL and 2.20 ng/mL
same,"Concentration in rat plasma, individual animals 4-6","i.v. 3 mg/kg, 24.0 h, 3 mg/kg",1.30 ng/mL and 1.20 ng/mL
same,concentration at 0.05 h,"male, SD, rat, plasma, iv, 3 mg/kg, i.v. 3 mg/kg, 0.05 h, read-out: Concentration in rat plasma, individual animals 4-6",454 ng/mL
same,concentration at 0.05 h,"male, SD, rat, plasma, iv, 3 mg/kg, i.v. 3 mg/kg, 0.05 h, read-out: Concentration in rat plasma, mean",376 ng/mL
same,concentration at 0.25 h,"male, SD, rat, plasma, iv, 3 mg/kg, i.v. 3 mg/kg, 0.25 h, read-out: Concentration in rat plasma, individual animals 4-6",159 ng/mL
same,concentration at 0.25 h,"male, SD, rat, plasma, iv, 3 mg/kg, i.v. 3 mg/kg, 0.25 h, read-out: Concentration in rat plasma, mean",146 ng/mL
same,concentration at 0.75 h,"male, SD, rat, plasma, iv, 3 mg/kg, i.v. 3 mg/kg, 0.75 h, read-out: Concentration in rat plasma, individual animals 4-6",59.3 ng/mL
same,concentration at 0.75 h,"male, SD, rat, plasma, iv, 3 mg/kg, i.v. 3 mg/kg, 0.75 h, read-out: Concentration in rat plasma, mean",68.8 ng/mL
same,concentration at 2 h,"male, SD, rat, plasma, iv, 3 mg/kg, i.v. 3 mg/kg, 2.00 h, read-out: Concentration in rat plasma, individual animals 4-6",13.4 ng/mL
same,concentration at 2 h,"male, SD, rat, plasma, iv, 3 mg/kg, i.v. 3 mg/kg, 2.00 h, read-out: Concentration in rat plasma, mean",17.9 ng/mL
same,concentration at 4 h,"male, SD, rat, plasma, iv, 3 mg/kg, i.v. 3 mg/kg, 4.00 h, read-out: Concentration in rat plasma, individual animals 4-6",2.9 ng/mL
same,concentration at 4 h,"male, SD, rat, plasma, iv, 3 mg/kg, i.v. 3 mg/kg, 4.00 h, read-out: Concentration in rat plasma, mean",3.83 ng/mL
same,concentration at 8 h,"male, SD, rat, plasma, iv, 3 mg/kg, i.v. 3 mg/kg, 8.00 h",1.97 ng/mL
same,concentration at 24 h,"male, SD, rat, plasma, iv, 3 mg/kg, i.v. 3 mg/kg, 24.0 h, read-out: Concentration in rat plasma, individual animals 4-6",0.9 ng/mL
same,concentration at 24 h,"male, SD, rat, plasma, iv, 3 mg/kg, i.v. 3 mg/kg, 24.0 h, read-out: Concentration in rat plasma, mean",1.13 ng/mL
same,half-life,"male, SD, rat, plasma, iv, 3 mg/kg, i.v. 3 mg/kg, individual animals 4-6",15.3 h
same,AUC(0-inf),[1],228 ng·h/mL
same,AUC(0-t),"male, SD, rat, plasma, iv, 3 mg/kg, rat, i.v. 3 mg/kg, individual animals 4-6, read-out: AUClast",208 ng·h/mL
same,clearance,"male, SD, rat, plasma, iv, 3 mg/kg, rat, i.v. 3 mg/kg, individual animals 4-6, read-out: CL_obs",219 mL/min/kg
same,MRT inf,[1],5.79 h
same,MRT inf,"male, SD, rat, plasma, iv, 3 mg/kg, rat, i.v. 3 mg/kg, mean",6.3 h
same,concentration at 0.25 h,"male, SD, rat, plasma, po, 10 mg/kg, p.o. 10 mg/kg, 0.25 h, read-out: Concentration in rat plasma, mean",19.6 ng/mL
same,concentration at 0.5 h,"male, SD, rat, plasma, po, 10 mg/kg, p.o. 10 mg/kg, 0.50 h",22.5 ng/mL
same,concentration at 1 h,"male, SD, rat, plasma, po, 10 mg/kg, p.o. 10 mg/kg, 1.00 h",16.1 ng/mL
same,concentration at 2 h,"male, SD, rat, plasma, po, 10 mg/kg, p.o. 10 mg/kg, 2.00 h, read-out: Concentration in rat plasma, individual animals 1-3",5.7 ng/mL
same,concentration at 2 h,"male, SD, rat, plasma, po, 10 mg/kg, p.o. 10 mg/kg, 2.00 h, read-out: Concentration in rat plasma, mean",7.23 ng/mL
same,concentration at 4 h,"male, SD, rat, plasma, po, 10 mg/kg, p.o. 10 mg/kg, 4.00 h, read-out: Concentration in rat plasma, mean",7.83 ng/mL
same,concentration at 8 h,"male, SD, rat, plasma, po, 10 mg/kg, p.o. 10 mg/kg, 8.00 h",0.633 ng/mL
same,concentration at 24 h,"male, SD, rat, plasma, po, 10 mg/kg, p.o. 10 mg/kg, 24.0 h, read-out: Concentration in rat plasma, mean",0 ng/mL
same,half-life,"male, SD, rat, plasma, po, 10 mg/kg, p.o. 10 mg/kg, individual animals 1-3",1.21 h
same,AUC(0-inf),"male, SD, rat, plasma, po, 10 mg/kg, rat, p.o. 10 mg/kg, individual animals 1-3",57.9 ng·h/mL
